Experimental data: the CheMixHub ionic liquid set

Assay: xn = mol fraction of the nth substance listed

CCCC[n+]1ccn(C)c1.O=C([O-])C(F)(F)F + OCCOCCOCCOCCO
298.15 K, 101 kPa
Conditions | viscosity [mPa·s]
x2 = 0 | 71.1
x2 = 0.5 | 71

C[C@H](N)C(=O)O + CCCCCCCCCCCCCCCC[n+]1ccccc1.[Cl-] + O
308.15 K, 101 kPa
Conditions | electrical conductivity [S/m]
x1 = 2.018e-05, x2 = 0 | 0.00076
x1 = 2.252e-05, x2 = 0 | 5.6e-05
x1 = 0.0009272, x2 = 0 | 7.5e-05
x1 = 0.001838, x2 = 0 | 0.000251

C=C[n+]1ccn(CCCC)c1.N[C@@H](Cc1c[nH]cn1)C(=O)[O-] + O
101.3 kPa
Conditions | electrical conductivity [S/m] | viscosity [mPa·s]
303.15 K, x1 = 0.3 | 3.56 | 8.1
303.15 K, x1 = 0.9 | 0.59 | 1179
323.15 K, x1 = 1 | 0.21 | 1418
333.15 K, x1 = 0.3 | – | 4.19
343.15 K, x1 = 0.7 | – | 29.04
353.15 K, x1 = 0.5 | – | 12.68

CC[n+]1ccn(C)c1.N#C[N-]C#N + OCC(F)(F)F + CCO
viscosity [mPa·s], 100 kPa
Conditions | 298.15 K | 303.15 K | 308.15 K | 313.15 K | 318.15 K
x1 = 0.0355, x2 = 0.8508 | – | 0.27 | 0.22 | 0.16 | 0.15
x1 = 0.0692, x2 = 0.8058 | 0.93 | 0.78 | 0.7 | 0.61 | 0.57
x1 = 0.1059, x2 = 0.7569 | 1.52 | 1.32 | 1.19 | 1.07 | 1
x1 = 0.1341, x2 = 0.7174 | 1.96 | 1.71 | 1.55 | 1.41 | 1.31
x1 = 0.1703, x2 = 0.668 | 2.49 | 2.19 | 1.99 | 1.82 | –
x1 = 0.2026, x2 = 0.6226 | 2.94 | 2.59 | 2.36 | 2.16 | –
x1 = 0.2373, x2 = 0.574 | 3.4 | 3.01 | 2.74 | 2.51 | –
x1 = 0.2705, x2 = 0.5266 | 3.82 | 3.39 | 3.09 | 2.82 | –
x1 = 0.3059, x2 = 0.4761 | 4.24 | 3.77 | 3.43 | 3.14 | –
x1 = 0.3367, x2 = 0.4558 | 4.59 | 4.1 | 3.72 | 3.39 | –
x1 = 0.3741, x2 = 0.4288 | 5 | 4.47 | 4.05 | 3.69 | –
x1 = 0.4093, x2 = 0.4055 | 5.37 | 4.8 | 4.35 | 3.95 | –
x1 = 0.4361, x2 = 0.3894 | 5.63 | 5.04 | 4.56 | 4.14 | –
x1 = 0.4751, x2 = 0.3581 | 6.01 | 5.38 | 4.86 | 4.41 | –
x1 = 0.5091, x2 = 0.3393 | 6.33 | 5.67 | 5.11 | 4.62 | –
x1 = 0.539, x2 = 0.314 | 6.6 | 5.91 | 5.32 | 4.81 | –
x1 = 0.576, x2 = 0.2854 | 6.92 | 6.19 | 5.57 | 5.03 | –
x1 = 0.6046, x2 = 0.2689 | 7.16 | 6.41 | 5.75 | 5.19 | –
x1 = 0.6344, x2 = 0.2517 | 7.42 | 6.62 | 5.94 | 5.36 | –
x1 = 0.673, x2 = 0.2236 | 7.74 | 6.9 | 6.18 | 5.57 | –
x1 = 0.7094, x2 = 0.2009 | 8.04 | 7.15 | 6.4 | 5.77 | –
x1 = 0.7331, x2 = 0.1948 | 8.23 | 7.31 | 6.54 | 5.9 | –
x1 = 0.7722, x2 = 0.1661 | 8.55 | 7.57 | 6.77 | 6.11 | –
x1 = 0.8061, x2 = 0.1434 | 8.84 | 7.79 | 6.97 | 6.29 | –

CCC[N+]1(C)CCCC1.O=S(=O)([N-]S(=O)(=O)C(F)(F)F)C(F)(F)F + CS(C)=O
electrical conductivity [S/m], 101 kPa, frequency 0.0005 MHz
Conditions | 278.15 K | 288.15 K | 298.15 K | 308.15 K | 318.15 K | 328.15 K | 338.15 K | 348.15 K | 358.15 K
x1 = 0.05995 | – | 0.967 | 1.18 | 1.4 | 1.62 | 1.85 | 2.08 | 2.31 | 2.54
x1 = 0.1606 | 0.953 | 1.21 | 1.5 | 1.79 | 2.01 | 2.39 | 2.76 | 3.05 | 3.39
x1 = 0.3647 | 0.66 | 0.879 | 1.09 | 1.37 | 1.65 | 1.9 | 2.12 | 2.41 | 2.75

viscosity [mPa·s], 101 kPa
Conditions | 278.15 K | 288.15 K | 298.15 K | 308.15 K | 318.15 K | 328.15 K | 338.15 K | 348.15 K | 358.15 K
x1 = 0.05995 | – | 3.56 | 2.86 | 2.367 | 1.965 | 1.682 | 1.446 | 1.27 | 1.126
x1 = 0.1606 | 7.89 | 5.88 | 4.56 | 3.66 | 2.99 | 2.51 | 2.138 | 1.847 | 1.623
x1 = 0.3647 | 20.1 | 13.94 | 10.18 | 7.75 | 6.1 | 4.93 | 4.08 | 3.44 | 2.95
x1 = 1 | 163.6 | 96.2 | 60.6 | 40.8 | 28.9 | 21.3 | 16.29 | 12.82 | 10.34

CCCC[n+]1ccn(C)c1.F[B-](F)(F)F + CC(=O)c1ccccc1
100 kPa, x2 = 0
Conditions | viscosity [mPa·s]
293.15 K | 133
303.15 K | 77
313.15 K | 49.1
323.15 K | 33
333.15 K | 23.3

CCCC[n+]1ccn(C)c1.O=C([O-])C(F)(F)F + CC(=O)[O-].CCCC[n+]1ccn(C)c1
viscosity [mPa·s], 101 kPa
Conditions | 293.15 K | 298.15 K | 303.15 K | 313.15 K | 323.15 K | 333.15 K | 343.15 K | 353.15 K
x2 = 0 | – | – | 58 | 37.8 | 26.1 | 18.89 | 14.47 | 11.25
x2 = 0.2508 | 137.7 | 103 | 78.8 | 49.7 | 33 | 23.2 | 17.33 | 13.18
x2 = 0.4999 | 210 | 152.5 | 113.3 | 66.8 | 42.9 | 29.1 | 20.74 | 15.68
x2 = 0.7487 | 343 | 238 | 171.1 | 94.9 | 57.4 | 37.6 | 25.9 | 18.86
